The text below walks through data of patent publication US11572373B2, “Maytansinoid-based drug delivery systems” (LADRX CORPORATION, priority 2017, dated 2023).

The term IC50 denotes the concentration that gives 50% inhibition.

In series [1] the test system is cancer cell lines (LXFL 529, RKO, SW-620, CAL-27, LXFL 1674L, MDA-MB 468, SK-OV-3, PAXF 1657, MCF7, COLO 205, MDA-MB 231, BT-474, Hep G2). The series can be described thus: In vitro cytotoxicity in different cell lines using the CellTiter-Blue Cell Viability Assay. The format is cell-based, human. Conditions: geometric mean over the n cell lines tested, 96 h treatment, CellTiter-Blue; read-out: Geomean IC50. A general note: Resazurin is reduced to fluorescent resorufin, in cell work by metabolically active cells.

Series [2] is described as follows: Stability of maytansinoids and maytansinoid-HSA conjugates in human plasma. The series is classed as in vitro ADME. The following applies: 37° C., 30 μM. As to the method:
(§1) For studying the stability of the maytansinoids as wells as the maytansinoid-HSA conjugates in CD1 and human plasma the compounds were incubated at 37° C. for 24 hours. Remaining free maytansinoid or release of the respective maytansinoid was quantified by LC-MS/MS (or HPLC) at certain time points.
(§2) Pooled CD1 mouse or human plasma (K2EDTA, Innovative research) was centrifuged (1 min at 12,044 g). The supernatant was first filtered through a filter needle (5 μm, sterile, Becton Dickinson) and subsequently through a cellulose acetate membrane (0.45 μm, sterile, Carl Roth). The filtered plasma (1710 μL) was preincubated at 37° C. for 30 min in a heating block. The free maytansinoid or albumin-binding maytansinoid as a 300 μM stock solution in DMSO (190 μL) was added to the preincubated plasma sample to produce a 30 μM solution of the respective maytansinoid or maytansinoid-HSA conjugate. The mixture was allowed to react for 10 min at 37° C. and then at each time point (0, 1, 2, 3, 4, 5, 21, and 24 hours) three samples (70 μL) were taken into a 96-well plate, sealed with a plastic mat, immediately frozen with liquid nitrogen and stored at −20° C. At the end of the experiment, the 96-well plate was thawed at room temperature. The samples (30 μL) were then directly transferred via a multichannel pipette into a 96-well Impact™ protein precipitation plate (Strata®) which was once washed with MeCN (150 μL) and then loaded with the internal standard (120 μL, MeCN containing 5 μg/mL maytansine). The Impact™ precipitation plate was sealed with a silicone mat and shaken for 2 min 420 rpm. The Impact™ precipitation plate was then placed onto a 96-well sample manifold and the filtrate was collected into another 96-well plate by applying mild vacuum. The 96-well plate was sealed with a silicone mat and kept at room temperature until LC-MS/MS quantification. The filtrate was injected into the LC-MS for quantification using the MRM mode. […]

A short description of series [3]: Stability of maytansinoids and maytansinoid-HSA conjugates in CD1 mouse plasma. The format is in vitro ADME. The following applies: 37° C., 30 μM. The procedure: as §1, §2
The nature of series [4]: In vitro cytotoxicity in different cell lines using the CellTiter-Blue Cell Viability Assay. The format is cell-based, human. Conditions: Homo sapiens; geometric mean over the n cell lines tested, 96 h treatment, CellTiter-Blue; read-out: Geomean IC50.

On to `COc1cc2cc(c1Cl)N(C)C(=O)C[C@H](OC(=O)[C@H](C)N(C)C(=O)CCS)[C@]1(C)O[C@H]1[C@H](C)[C@@H]1C[C@@](O)(NC(=O)O1)[C@H](OC)/C=C/C=C(\C)C2` [DM1, reference compound], for which the IC50 in series [1] was found to be 3.22 nM.
Still for that read-out and setting: with `COc1cc2cc(c1Cl)N(C)C(=O)C[C@H](OC(=O)[C@H](C)N(C)C(=O)CCSSC)[C@]1(C)O[C@H]1[C@H](C)[C@@H]1C[C@@](O)(NC(=O)O1)[C@H](OC)/C=C/C=C(\C)C2` [DM1-SMe, reference compound] the figure was 1.3 nM.
For `COc1cc2cc(c1Cl)N(C)C(=O)C[C@H](OC(=O)Cc1ccc(C(C)=O)cc1)[C@]1(C)O[C@H]1[C@H](C)[C@@H]1C[C@@](O)(NC(=O)O1)[C@H](OC)/C=C/C=C(\C)C2` [Compound 4], the results for the “% of free maytansinoid remaining after 24 h” value in series [2] and in series [3] were 75.6% and 65.2%, respectively. Besides, the IC50 in series [4] turned out to be 0.16 nM.
